The numbers were not newly measured in US20070148249A1, “Method of preparation of oral solid dosage form with instant release of acting” (priority 2003, published 2007), which cites them from elsewhere.

Read-outs that look alike come from different tables or passages of the source.

Turning to `CC(C)(C)NC(=O)[C@H]1CC[C@H]2[C@@H]3CC[C@H]4NC(=O)C=C[C@]4(C)[C@H]3CC[C@]12C` [Finasteride, (5α,17β)-N-(1,1-dimethylethyl)-3-oxo-4-azaandrost-1-en-17-carboxamide], the Solubility result reads like this: (in chloroform and lower alcohols) “well soluble”; (in water) “almost insoluble”.
